This passage reports melting point results from patent publication US7407961B2, “Pyrazine derivatives and pharmaceutical use thereof” (Astellas Pharma Inc., priority 2003, dated 2008).

Structures can show the parent of a compound that is named as a salt.

The molecule `CC(C)n1cc(-c2nc(C(N)=O)c(N)nc2-c2ccc(Cl)cc2)ccc1=O` (hydrate or solvate) [Example 22, 3-Amino-5-(4-chlorophenyl)-6-(1-isopropyl-6-oxo-1,6-dihydro-3-pyridyl)-2-pyrazinecarboxamide] returned a melting point of 246.2 °C.
For `COc1ccc(-c2nc(C#N)c(N)nc2-c2ccccc2)cn1` [Example 1, 3-amino-6-(6-methoxy-3-pyridyl)-5-phenyl-2-pyrazinecarbonitrile], the melting point is 201 to 205 °C.
The molecule `CC(C)n1cc(-c2nc(C(N)=O)c(N)nc2-c2ccc(F)cc2)ccc1=O` (hydrate or solvate) [Example 19, 3-Amino-5-(4-fluorophenyl)-6-(1-isopropyl-6-oxo-1,6-dihydro-3-pyridyl)-2-pyrazinecarboxamide] gave a melting point of 235.6 °C.
`COc1ccc(-c2nc(C(N)=O)c(N)nc2-c2ccccc2)cn1` (hydrate or solvate) [Example 15, 3-amino-6-(6-methoxy-3-pyridyl)-5-phenyl-2-pyrazinecarboxamide] showed a melting point of 208 to 212 °C.
Then `CC(C)n1cc(-c2nc(C(N)=O)c(N)nc2-c2ccccc2)ccc1=O` (hydrate or solvate) [Example 16, 3-amino-6-(1-isopropyl-6-oxo-1,6-dihydro-3-pyridyl)-5-phenyl-2-pyrazinecarboxamide], with 245 °C.
The same measure for `N#Cc1nc(-c2ccc(=O)[nH]c2)c(-c2ccccc2)nc1N` (hydrate or solvate) [Example 10, 3-amino-6-(6-oxo-1,6-dihydro-3-pyridyl)-5-phenyl-2-pyrazinecarbonitrile]: 243 to 248 °C.
On to `CC(C)n1cc(-c2nc(C(N)=O)c(N)nc2-c2ccccc2OC(F)(F)F)ccc1=O` (hydrate or solvate) [Example 26, 3-Amino-6-(1-isopropyl-6-oxo-1,6-dihydro-3-pyridyl)-5-[2-(trifluoromethoxy)phenyl]-2-pyrazinecarboxamide], for which the melting point was determined as 206.5 °C.
In the case of `CCCn1cc(-c2nc(C#N)c(N)nc2-c2ccccc2)ccc1=O` [Example 13, 3-Amino-6-(6-oxo-1-propyl-1,6-dihydro-3-pyridyl)-5-phenyl-2-pyrazinecarbonitrile], the melting point was in the range of 180 to 183 °C.
Then `CC(C)OC(=O)c1nc(-c2ccc(=O)[nH]c2)c(-c2ccccc2)nc1N` [Example 9, isopropyl 3-amino-6-(6-oxo-1,6-dihydro-3-pyridyl)-5-phenyl-2-pyrazinecarboxylate], with 250 to 256 °C; and `COc1cccc(-c2nc(N)c(C#N)nc2-c2ccc(=O)n(C(C)C)c2)c1` (hydrate or solvate) [Example 37, 3-Amino-6-(1-isopropyl-6-oxo-1,6-dihydro-3-pyridyl)-5-(3-methoxyphenyl)-2-pyrazinecarbonitrile], with 192.3 °C.
Then `CCCn1cc(-c2nc(C(N)=O)c(N)nc2-c2ccccc2)ccc1=O` [Example 5, 3-Amino-6-(6-oxo-1-propyl-1,6-dihydro-3-pyridyl)-5-phenyl-2-pyrazinecarboxamide], with over 250 °C.
The same measure for `COc1ccccc1-c1nc(N)c(C#N)nc1-c1ccc(=O)n(C(C)C)c1` (hydrate or solvate) [Example 36, 3-Amino-6-(1-isopropyl-6-oxo-1,6-dihydro-3-pyridyl)-5-(2-methoxyphenyl)-2-pyrazinecarbonitrile]: 222.6 °C; for `CC(C)n1cc(-c2nc(C#N)c(N)nc2-c2ccc(F)cc2)ccc1=O` (hydrate or solvate) [Example 35, 3-Amino-5-(4-fluorophenyl)-6-(1-isopropyl-6-oxo-1,6-dihydro-3-pyridyl)-2-pyrazinecarbonitrile]: 207 °C.
`CCn1cc(-c2nc(C#N)c(N)nc2-c2ccccc2)ccc1=O` [Example 12, 3-Amino-6-(1-ethyl-6-oxo-1,6-dihydro-3-pyridyl)-5-phenyl-2-pyrazinecarbonitrile] gave a melting point of 193 to 199 °C.
Then `CC(C)n1cc(-c2nc(C(N)=O)c(N)nc2-c2ccc(F)c(F)c2)ccc1=O` (hydrate or solvate) [Example 29, 3-Amino-5-(3,4-difluorophenyl)-6-(1-isopropyl-6-oxo-1,6-dihydro-3-pyridyl)-2-pyrazinecarboxamide], with 225.8 °C; and `Cn1cc(-c2nc(C(N)=O)c(N)nc2-c2ccccc2)ccc1=O` [Example 3, 3-amino-6-(1-methyl-6-oxo-1,6-dihydro-3-pyridyl)-5-phenyl-2-pyrazinecarboxamide], with over 250 °C.
The same measure for `CC(C)n1cc(-c2nc(C(N)=O)c(N)nc2-c2cc(F)cc(F)c2)ccc1=O` (hydrate or solvate) [Example 30, 3-Amino-5-(3,5-difluorophenyl)-6-(1-isopropyl-6-oxo-1,6-dihydro-3-pyridyl)-2-pyrazinecarboxamide]: 248.8 °C; for `COc1ccccc1-c1nc(N)c(C(N)=O)nc1-c1ccc(=O)n(C(C)C)c1` (hydrate or solvate) [Example 23, 3-Amino-6-(1-isopropyl-6-oxo-1,6-dihydro-3-pyridyl)-5-(2-methoxyphenyl)-2-pyrazinecarboxamide]: 263.1 °C.
`CCOC(=O)c1nc(-c2ccc(=O)[nH]c2)c(-c2ccccc2)nc1N` [Example 8, Ethyl 3-amino-6-(6-oxo-1,6-dihydro-3-pyridyl)-5-phenyl-2-pyrazinecarboxylate]: the melting point was 230 to 238 °C.
The same measure for `CC(C)n1cc(-c2nc(C(N)=O)c(N)nc2-c2cccc(OC(F)(F)F)c2)ccc1=O` (hydrate or solvate) [Example 27, 3-Amino-6-(1-isopropyl-6-oxo-1,6-dihydro-3-pyridyl)-5-[3-(trifluoromethoxy)phenyl]-2-pyrazinecarboxamide]: 265.5 °C; for `COc1ccc(-c2nc(N)c(C(N)=O)nc2-c2ccc(=O)n(C(C)C)c2)cc1` (hydrate or solvate) [Example 25, 3-Amino-6-(1-isopropyl-6-oxo-1,6-dihydro-3-pyridyl)-5-(4-methoxyphenyl)-2-pyrazinecarboxamide]: 243.9 °C.
The same measure for `CC(C)n1cc(-c2nc(C(N)=O)c(N)nc2-c2ccc(OC(F)(F)F)cc2)ccc1=O` (hydrate or solvate) [Example 28, 3-Amino-6-(1-isopropyl-6-oxo-1,6-dihydro-3-pyridyl)-5-[4-(trifluoromethoxy)phenyl]-2-pyrazinecarboxamide]: 264 °C; for `CC(C)n1cc(-c2nc(C(=O)O)c(N)nc2-c2ccc(F)cc2)ccc1=O` (hydrate or solvate) [Example 40, 3-amino-5-(4-fluorophenyl)-6-(1-isopropyl-6-oxo-1,6-dihydro-3-pyridyl)-2-pyrazinecarboxylic acid]: 222.2 °C; for `COc1cccc(-c2nc(N)c(C(N)=O)nc2-c2ccc(=O)n(C(C)C)c2)c1` (hydrate or solvate) [Example 24, 3-Amino-6-(1-isopropyl-6-oxo-1,6-dihydro-3-pyridyl)-5-(3-methoxyphenyl)-2-pyrazinecarboxamide]: 192.3 °C.
For the molecule `CC(C)n1cc(-c2nc(C#N)c(N)nc2-c2ccccc2)ccc1=O` [Example 14, 3-Amino-6-(1-isopropyl-6-oxo-1,6-dihydro-3-pyridyl)-5-phenyl-2-pyrazinecarbonitrile], the melting point came out at 204.5 °C.
`COc1ccc(-c2nc(N)c(C#N)nc2-c2ccc(=O)n(C(C)C)c2)cc1` (hydrate or solvate) [Example 38, 3-Amino-6-(1-isopropyl-6-oxo-1,6-dihydro-3-pyridyl)-5-(4-methoxyphenyl)-2-pyrazinecarbonitrile] showed a melting point of 243.9 °C.
On to `CC(C)n1cc(-c2nc(C(N)=O)c(N)nc2-c2ccccc2F)ccc1=O` (hydrate or solvate) [Example 17, 3-Amino-5-(2-fluorophenyl)-6-(1-isopropyl-6-oxo-1,6-dihydro-3-pyridyl)-2-pyrazinecarboxamide], for which the melting point worked out at 251.7 °C.
The same measure for `NC(=O)c1nc(-c2ccc(=O)[nH]c2)c(-c2ccccc2)nc1N` (hydrate or solvate) [Example 2, 3-amino-6-(6-oxo-1,6-dihydro-3-pyridyl)-5-phenyl-2-pyrazinecarboxamide]: 215 to 220 °C.
Then `CC(C)n1cc(-c2nc(C(N)=O)c(N)nc2-c2ccccc2)ccc1=O` [Example 6, 3-Amino-6-(1-isopropyl-6-oxo-1,6-dihydro-3-pyridyl)-5-phenyl-2-pyrazinecarboxamide], with 240 to 245 °C.
Molecule `Cn1cc(-c2nc(C#N)c(N)nc2-c2ccccc2)ccc1=O` (as salt: Na) [Example 11, 3-amino-6-(1-methyl-6-oxo-1,6-dihydro-3-pyridyl)-5-phenyl-2-pyrazinecarbonitrile] registered a melting point of over 250 °C.
Then `CC(C)n1cc(-c2nc(C(N)=O)c(N)nc2-c2ccc(C#N)cc2)ccc1=O` (hydrate or solvate) [Example 31, 3-Amino-5-(4-cyanophenyl)-6-(1-isopropyl-6-oxo-1,6-dihydro-3-pyridyl)-2-pyrazinecarboxamide], with 292 °C; and `CC(C)n1cc(-c2nc(C(N)=O)c(N)nc2-c2cccc(Cl)c2)ccc1=O` (hydrate or solvate) [Example 21, 3-Amino-5-(3-chlorophenyl)-6-(1-isopropyl-6-oxo-1,6-dihydro-3-pyridyl)-2-pyrazinecarboxamide], with 232.6 °C.
Regarding `CC(C)n1cc(-c2nc(C#N)c(N)nc2-c2ccc(F)c(F)c2)ccc1=O` (hydrate or solvate) [Example 39, 3-Amino-5-(3,4-difluorophenyl)-6-(1-isopropyl-6-oxo-1,6-dihydro-3-pyridyl)-2-pyrazinecarbonitrile], the melting point was 180 °C.
The same measure for `CC(C)n1cc(-c2nc(C#N)c(N)nc2-c2ccccc2F)ccc1=O` (hydrate or solvate) [Example 33, 3-Amino-5-(2-fluorophenyl)-6-(1-isopropyl-6-oxo-1,6-dihydro-3-pyridyl)-2-pyrazinecarbonitrile]: 210.6 °C.

For orientation: melting point means the temperature of the solid-liquid transition.
